Experimental findings from ChEMBL document CHEMBL1153322, “Identification of novel and orally active spiroindoline NPY Y5 receptor antagonists” (Bioorg Med Chem Lett, 2009) are described below.

Activity calls are given as the source filed them. No cut-off for these calls is given here.

The nature of data set [1]: Ratio of drug level in brain to plasma of rat at 3 mg/kg, iv after 10 mins. Also noted: dose 3 mg/kg, route intravenous. The following applies: brain and plasma, read-out: BPR. The format is ADME, organism-based.
The target in data set [2] is T1, Neuropeptide Y receptor type 5 (Homo sapiens, UniProt Q15761).
T1 sequence (Q15761 whole entry): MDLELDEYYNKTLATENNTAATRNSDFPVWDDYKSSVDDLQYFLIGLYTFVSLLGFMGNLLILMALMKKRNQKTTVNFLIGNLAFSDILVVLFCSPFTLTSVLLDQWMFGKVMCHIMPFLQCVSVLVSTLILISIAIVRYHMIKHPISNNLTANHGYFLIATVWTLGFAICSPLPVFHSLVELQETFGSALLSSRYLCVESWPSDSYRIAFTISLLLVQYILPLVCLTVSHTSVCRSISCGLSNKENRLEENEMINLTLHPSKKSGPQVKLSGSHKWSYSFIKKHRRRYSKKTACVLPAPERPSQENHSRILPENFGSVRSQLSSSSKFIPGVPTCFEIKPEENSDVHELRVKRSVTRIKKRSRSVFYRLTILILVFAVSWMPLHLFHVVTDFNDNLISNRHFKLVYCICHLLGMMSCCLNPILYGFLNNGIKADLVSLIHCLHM
Description: Displacement of [125I]PYY from human recombinant Y5 receptor expressed in mouse LMtk cells. The format is cell-based.

Data set [3] is described as follows: Oral bioavailability in rat at 10 mg/kg. It is filed as ADME, organism-based. The following applies: in vivo.
Data set [4] is described as follows: Ratio of drug level in brain to plasma of rat at 3 mg/kg, iv after 60 mins. It is filed as ADME, organism-based. Also noted: dose 3 mg/kg, route intravenous. The settings on record: brain and plasma, read-out: BPR.
Data set [5] deals with Rattus norvegicus. Description: Inhibition of bovine-pancreatic polypeptide-induced food intake in po dosed Sprague-Dawley rat assessed as minimum effective dose measured for 2 hrs. The following applies: read-out: MED. The format is functional.
The test system of data set [6] is Rattus norvegicus. As to the kind of experiment: Toxicity in Sprague-Dawley rat assessed as sedation at 30 mg/kg, po. The following applies: in vivo. Details: dose 30 mg/kg, route oral. The format is organism-based.
The test system of data set [7] is Rattus norvegicus. As to the kind of experiment: Inhibition of bovine-pancreatic polypeptide-induced food intake in Sprague-Dawley rat at 30 mg/kg, po measured for 2 hrs. It is filed as functional, organism-based. Details: dose 30 mg/kg.
Data set [8] in a line: Solubility at pH 5. The format is physicochemical. The following applies: buffer.
Data set [9] can be described thus: Solubility at pH 3. It is filed as physicochemical. The following applies: buffer.
A short description of data set [10]: Solubility at pH 7. It is filed as physicochemical. The settings on record: buffer.
Data set [11] can be described thus: Lipophilicity, log D at pH 7.4. It is filed as physicochemical. The following applies: buffer.
Data set [12] can be described thus: Solubility at pH 1. It is filed as physicochemical. The following applies: buffer.

As for `CS(=O)(=O)N1CC2(CCN(C(=O)Nc3ccc(-c4ccccc4)nn3)CC2)c2ccccc21`, the Kp at 10 min in data set [1] came out at 0.42. Moreover, the IC50 in data set [2] came out at 3 nM. The same compound returned a bioavailability in [3] of 20%. For the same compound, the Kp at 1 h in data set [4] came out at 0.32.

Consider `CS(=O)(=O)N1CC2(CCN(C(=O)Nc3cnc(-c4ccccc4)cn3)CC2)c2ccccc21`, for which, in data set [2], the IC50 amounted to 0.97 nM. The same compound came in with a bioavailability in [3] of 0%.

Regarding `O=C(Nc1cc(-c2ccc(Cl)cc2)n[nH]1)C1Cc2ccccc2C1`, the IC50 in data set [2] came out at 59 nM.

`CS(=O)(=O)N1CC2(CCN(C(=O)Cc3ccc(-c4ccccc4)cc3)CC2)c2ccccc21`: in data set [2], the half-maximal inhibitory concentration (IC50) worked out at 180 nM.

With `CS(=O)(=O)Nc1ccccc1N1CCN(C(=O)Nc2cc(-c3ccc(Cl)cc3)n[nH]2)CC1`, in data set [2], the IC50 is 1.4 nM.

`CS(=O)(=O)N1CC2(CCN(C(=O)Nc3cccc(-c4ccccc4)c3)CC2)c2ccccc21`: in data set [2], the IC50 is 1.3 nM.

On to `CC(=O)c1ccc(NC(=O)N2CCC3(CC2)CN(S(N)(=O)=O)c2ccccc23)cc1`, for which, in data set [2], the 50% inhibitory concentration (IC50) turned out to be 2 nM.

As to `CS(=O)(=O)N1CC2(CCN(C(=O)Nc3cccc(-c4ccncc4)c3)CC2)c2ccccc21`, in data set [2], the IC50 amounted to 23 nM.

Consider `CCCCc1ccc(NC(=O)N2CCC3(CC2)CN(S(C)(=O)=O)c2ccccc23)cc1`, for which the IC50 in [2] came to 1.2 nM.

As for `CS(=O)(=O)N1CC2(CCN(C(=O)Nc3ncc(-c4ccccc4)cn3)CC2)c2ccccc21`, the Kp at 10 min in data set [1] is 0.14. Moreover, in data set [2], the IC50 came out at 0.57 nM. In data set [3], this compound came in with a bioavailability of 24%. Further, the Kp at 1 h in data set [4] came to 0.07.

`CS(=O)(=O)N1CC2(CCN(C(=O)Nc3ccc(-c4ccccn4)cc3)CC2)c2ccccc21`: the Kp at 10 min in [1] was determined as 0.23. Moreover, in data set [2], the IC50 was found to be 3 nM. The compound further displayed a bioavailability in data set [3] of 12%. Also, the Kp at 1 h in data set [4] stood at 0.24.

In the case of `CS(=O)(=O)N1CC2(CCN(C(=O)Nc3ccc(-c4ccncc4)cc3)CC2)c2ccccc21`, the minimal effective dose in [5] turned out to be 10 mg/kg. Moreover, in data set [6], the Activity result is listed as “Non-toxic”. In addition, the Kp at 10 min in data set [1] stood at 0.12. In addition, the 50% inhibitory concentration (IC50) in [2] is 4.1 nM. Also, the bioavailability in data set [3] is 53%. Also, the result in [7] was Active. In addition, the Kp at 1 h in data set [4] is 0.12.

On to `CS(=O)(=O)N1C[C@]2(CC[C@@H](C(=O)Nc3ccc(-c4ccccc4)cc3)CC2)c2ccccc21`, for which the IC50 in data set [2] was 200 nM.

Consider `NS(=O)(=O)N1CC2(CCN(C(=O)Nc3ccc(Oc4ccccc4)cc3)CC2)c2ccccc21`, for which the IC50 in data set [2] came out at 3 nM.

As for `CS(=O)(=O)N1CC2(CCN(C(=O)Nc3ccc(-c4ccccc4)cc3)CC2)c2ccccc21`, in data set [1], the Kp at 10 min was determined as 1.3. In data set [2], the IC50 worked out at 0.85 nM. Also, the solubility in [8], in [9], in data set [10] and in data set [12] was under 0.01 µg/mL in each case. Moreover, the bioavailability in data set [3] worked out at 0%. Further, in data set [11], the log distribution coefficient (logD) was over 4. Also, the Kp at 1 h in [4] turned out to be 1.93.

Turning to `CS(=O)(=O)N1CC2(CCN(C(=O)Nc3nccc(-c4ccccc4)n3)CC2)c2ccccc21`, the IC50 in data set [2] came out at 9.8 nM.

For the compound `CS(=O)(=O)N1CC2(CCN(C(=O)Nc3ccc(-c4ccccc4)cn3)CC2)c2ccccc21`, the half-maximal inhibitory concentration (IC50) in data set [2] is 0.96 nM. Moreover, in [3], the bioavailability came out at 0%.

On to `NS(=O)(=O)N1CC2(CCN(C(=O)Nc3ccccc3Cl)CC2)c2ccccc21`, for which the IC50 in [2] came to 5 nM.

As to `CS(=O)(=O)N1CC2(CCN(C(=O)Nc3ccc(-c4cccnc4)cc3)CC2)c2ccccc21`, the Kp at 10 min in data set [1] was 0.13. In data set [2], the IC50 was 2.1 nM. This compound displayed a bioavailability in [3] of 47%. Further, the Kp at 1 h in data set [4] was found to be 0.11.

Consider `CS(=O)(=O)N1CC2(CCN(C(=O)Nc3ccnc(-c4ccccc4)n3)CC2)c2ccccc21`, for which the IC50 in [2] came to 7.5 nM.

Consider `CS(=O)(=O)N1C[C@]2(CC[C@H](C(=O)Nc3ccc(-c4ccccc4)cc3)CC2)c2ccccc21`, for which the IC50 in data set [2] turned out to be 1.5 nM.

Regarding `CS(=O)(=O)N1CC2(CCN(C(=O)Nc3cnc(-c4ccccc4)nc3)CC2)c2ccccc21`, in data set [2], the IC50 worked out at 0.86 nM. Moreover, the bioavailability in data set [3] was determined as 0%.

For `CS(=O)(=O)N1CC2(CCN(C(=O)Nc3ccc(Cl)c(Cl)c3)CC2)c2ccccc21`, the IC50 in data set [2] was 0.2 nM.

As for `NS(=O)(=O)N1CC2(CCN(C(=O)Nc3ccc(Cl)c(Cl)c3)CC2)c2ccccc21`, the IC50 in [2] worked out at 4 nM.

In the case of `CS(=O)(=O)N1CC2(CCN(C(=O)Nc3ccccc3-c3ccccc3)CC2)c2ccccc21`, the IC50 in data set [2] was determined as 430 nM.

Take `CS(=O)(=O)N1CC2(CCN(C(=O)Nc3ccc(-c4ccccc4)nc3)CC2)c2ccccc21`: in data set [2], the IC50 came to 0.82 nM. Also, the bioavailability in data set [3] was determined as 0%.
